Source: PubChem BioAssay AID274 (DTP/NCI, 2004)
Values joined by “and” are separate entries in the source; they are usually repeats but may differ in a detail not shown here. Equal entries are not always repeated. Toxic doses and inconclusive results are not listed.

Tested on: BDF1 mice, Lewis lung carcinoma iv, survival T/C
Assay: NCI In Vivo Anticancer Drug Screen. Data for tumor model Lewis Lung Carcinoma (intravenous) in B6D2F1 (BDF1) mice
Settings: endpoint: median survival time, schedule: Q01DX009 (ip), higher = longer survival
Description: The antitumor activity of compounds was measured in mice bearing transplantable tumors. Survival or tumor size were measured and the results are expressed as the measurement made in the treated group (T) divided by the measurement made in the vehicle treated control group (C). The tumor model used in this assay is Lewis Lung Carcinoma (intravenous) in B6D2F1 (BDF1) mice

[1] = dose: 12.5 mg/kg/injection, vehicle: saline
[2] = dose: 25.0 mg/kg/injection, vehicle: saline
[3] = dose: 50.0 mg/kg/injection, vehicle: saline
[4] = dose: 100.0 mg/kg/injection, vehicle: saline
[5] = dose: 200.0 mg/kg/injection, vehicle: saline
[6] = dose: 3.13 mg/kg/injection, vehicle: Klucel (hydroxypropylcellulose) (HPC)
[7] = dose: 6.25 mg/kg/injection, vehicle: Klucel (hydroxypropylcellulose) (HPC)
[8] = dose: 12.5 mg/kg/injection, vehicle: Klucel (hydroxypropylcellulose) (HPC)
[9] = dose: 25.0 mg/kg/injection, vehicle: Klucel (hydroxypropylcellulose) (HPC)
[10] = dose: 12.5 mg/kg/injection, vehicle: saline with Tween-80
[11] = dose: 25.0 mg/kg/injection, vehicle: saline with Tween-80
[12] = dose: 50.0 mg/kg/injection, vehicle: saline with Tween-80
[13] = dose: 100.0 mg/kg/injection, vehicle: saline with Tween-80
[14] = dose: 6.25 mg/kg/injection, vehicle: saline with Tween-80
[15] = dose: 200.0 mg/kg/injection, vehicle: saline with Tween-80
[16] = dose: 50.0 mg/kg/injection, vehicle: Klucel (hydroxypropylcellulose) (HPC)
[17] = dose: 3.12 mg/kg/injection, vehicle: saline with Tween-80
[18] = dose: 100.0 mg/kg/injection, vehicle: Klucel (hydroxypropylcellulose) (HPC)
[19] = dose: 3.12 mg/kg/injection, vehicle: Klucel (hydroxypropylcellulose) (HPC)

C[Si](C)(C)O/C=C1/CCOC1=O
T/C [1]: 116 % of control
T/C [2]: 101 % of control
T/C [3]: 107 % of control
T/C [4]: 108 % of control
T/C [5]: 93 % of control
T/C (dose: 400.0 mg/kg/injection, vehicle: saline): 99 % of control

CCCNc1ncnc2c1cnn2C
T/C [1]: 100 % of control
T/C [2]: 105 % of control
T/C [3]: 109 % of control

CN(C)c1ccc2c(N(C)C)cc(N(C)C)nc2c1
T/C (dose: 1.56 mg/kg/injection, vehicle: Klucel (hydroxypropylcellulose) (HPC)): 98 % of control
T/C [6]: 95 % of control
T/C [7]: 102 % of control
T/C [8]: 99 % of control
T/C [9]: 111 % of control

O=C1N=C(Oc2ccccc2)SC1=O
T/C [10]: 100 % of control and 109 % of control
T/C [11]: 97 % of control
T/C [12]: 94 % of control and 102 % of control
T/C [13]: 100 % of control

C[N+](C)(C)c1ncnc2nc[nH]c12
T/C [3]: 103 % of control
T/C [4]: 100 % of control
T/C [5]: 103 % of control

O=[N+]([O-])c1ccc(Sc2ccncn2)c([N+](=O)[O-])c1
T/C [10]: 91 % of control
T/C [11]: 112 % of control
T/C [12]: 95 % of control
T/C [13]: 107 % of control

Nc1cc(Cl)c2[nH]cnc2n1
T/C (dose: 6.25 mg/kg/injection, vehicle: distilled water + Tween-80): 106 % of control
T/C (dose: 12.5 mg/kg/injection, vehicle: distilled water + Tween-80): 98 % of control
T/C (dose: 25.0 mg/kg/injection, vehicle: distilled water + Tween-80): 109 % of control
T/C (dose: 50.0 mg/kg/injection, vehicle: distilled water + Tween-80): 113 % of control
T/C (dose: 100.0 mg/kg/injection, vehicle: distilled water + Tween-80): 107 % of control

CN(C)CCNc1ccc([N+](=O)[O-])c2sc3ccccc3c(=O)c12
T/C [14]: 106 % of control
T/C [10]: 109 % of control and 112 % of control
T/C [11]: 104 % of control
T/C [12]: 153 % of control

COc1ccc(OC)c(/C=C/c2ccnc3ccccc23)c1
T/C [10]: 94 % of control and 100 % of control
T/C [11]: 104 % of control and 117 % of control
T/C [12]: 94 % of control and 112 % of control
T/C [13]: 102 % of control and 109 % of control
T/C [15]: 101 % of control and 109 % of control
T/C (dose: 400.0 mg/kg/injection, vehicle: saline with Tween-80): 104 % of control and 119 % of control

C/C=C/C=C/c1cc2cc3c(c(O)c2c(=O)[nH]1)C1(CC3)C(O)=c2c(=O)c3c(=O)cc(OC)c(=O)c=3c(=O)c2=C1O (stereo not given)
T/C (dose: 0.06 mg/kg/injection, vehicle: DMSO): 97 % of control
T/C (dose: 0.12 mg/kg/injection, vehicle: DMSO): 102 % of control
T/C (dose: 0.25 mg/kg/injection, vehicle: DMSO): 95 % of control and 101 % of control
T/C (dose: 0.5 mg/kg/injection, vehicle: DMSO): 102 % of control
T/C (dose: 16.0 micrograms/kg/injection, vehicle: DMSO): 102 % of control
T/C (dose: 31.0 micrograms/kg/injection, vehicle: DMSO): 93 % of control
T/C (dose: 62.0 micrograms/kg/injection, vehicle: DMSO): 91 % of control
T/C (dose: 125.0 micrograms/kg/injection, vehicle: DMSO): 102 % of control

CC(=O)N(C)O
T/C [11]: 102 % of control
T/C [12]: 90 % of control
T/C [13]: 98 % of control
T/C [15]: 95 % of control

Nc1ccc(Cl)cc1N
T/C [10]: 92 % of control
T/C [11]: 93 % of control
T/C [12]: 99 % of control
T/C [13]: 104 % of control
T/C [15]: 102 % of control

CC(=O)O[C@@H]1CO[C@H]2O[C@H]3[C@@H](C(C=O)=C[C@H](O)[C@@H]4C5=C(C(C)C)CC[C@]5(C)CC[C@@]34C)[C@@]2(O)C1=O
T/C (dose: 0.75 mg/kg/injection, vehicle: Klucel (hydroxypropylcellulose) (HPC)): 96 % of control
T/C (dose: 1.5 mg/kg/injection, vehicle: Klucel (hydroxypropylcellulose) (HPC)): 107 % of control

CC(=O)CC(C)=O.CC(=O)CC(C)=O.O=N[O-].O=N[O-].[Co]
T/C [10]: 103 % of control
T/C [11]: 96 % of control
T/C [12]: 107 % of control

COc1cc(C(=O)c2cocc2C(=O)c2ccc3c(c2)OCO3)cc(OC)c1OC
T/C [16]: 88 % of control
T/C (dose: 400.0 mg/kg/injection, vehicle: Klucel (hydroxypropylcellulose) (HPC)): 94 % of control

CNC(=O)c1cccc2c(Nc3ccc(NS(C)(=O)=O)cc3OC)c3cccc(C)c3nc12
T/C (dose: 0.39 mg/kg/injection, vehicle: water): 100 % of control
T/C (dose: 1.56 mg/kg/injection, vehicle: water): 112 % of control
T/C (dose: 3.12 mg/kg/injection, vehicle: water): 89 % of control

CC1(CO)C(O)CCC2(C)C1CCC1CC3CC12CCC3(O)CO (stereo not given)
T/C [14]: 87 % of control
T/C [10]: 97 % of control
T/C [11]: 110 % of control
T/C [15]: 106 % of control

CS(=O)(=O)[O-].CS(=O)(=O)[O-].NC1CCCCC1N.[Pt+4] (stereo not given)
T/C (dose: 0.31 mg/kg/injection, vehicle: dextrose): 113 % of control
T/C (dose: 0.62 mg/kg/injection, vehicle: dextrose): 98 % of control
T/C (dose: 1.25 mg/kg/injection, vehicle: dextrose): 91 % of control

CCC1OCC(C(Cl)CCl)O1 (stereo not given)
T/C [17]: 103 % of control
T/C [14]: 97 % of control
T/C [8]: 97 % of control
T/C [10]: 108 % of control
T/C [9]: 98 % of control
T/C [11]: 109 % of control
T/C [16]: 97 % of control
T/C [12]: 94 % of control
T/C [18]: 96 % of control
T/C [13]: 109 % of control
T/C (dose: 200.0 mg/kg/injection, vehicle: Klucel (hydroxypropylcellulose) (HPC)): 97 % of control

OC1CCCC2CCCNC12 (stereo not given)
T/C [17]: 104 % of control
T/C [14]: 100 % of control
T/C [10]: 152 % of control
T/C [11]: 96 % of control
T/C [12]: 99 % of control
T/C [13]: 95 % of control

CCc1c(CC(=O)O)c2cc(C)ccc2n1Cc1ccc(Cl)cc1
T/C [19]: 110 % of control
T/C [6]: 119 % of control
T/C [7]: 105 % of control and 108 % of control
T/C [8]: 100 % of control and 117 % of control
T/C [9]: 91 % of control and 99 % of control
T/C [16]: 95 % of control and 119 % of control
T/C [18]: 112 % of control and 88 % of control

O=C(C1CO1)C(Cl)(Cl)Cl (stereo not given)
T/C [1]: 98 % of control
T/C [2]: 102 % of control

Nc1nc(=S)c2ncn(C3OC(CO)CC3O)c2[nH]1 (stereo not given)
T/C (dose: 5.0 mg/kg/injection, vehicle: saline): 115 % of control
T/C (dose: 10.0 mg/kg/injection, vehicle: saline): 101 % of control
T/C (dose: 20.0 mg/kg/injection, vehicle: saline): 87 % of control

COc1ccc(C(N)=O)cc1N=NN(C)C
T/C [19]: 95 % of control
T/C [7]: 98 % of control
T/C [8]: 118 % of control
T/C [9]: 110 % of control

CC(=O)OCC12C3CC(=O)OC1C(OC(=O)C=C(C)C)C1C(C)=CC(=O)C(OC(C)=O)C1(C)C2C(=O)C(OC(C)=O)C3C (stereo not given)
T/C (dose: 0.25 mg/kg/injection, vehicle: saline): 86 % of control
T/C (dose: 0.5 mg/kg/injection, vehicle: saline): 107 % of control
T/C (dose: 1.0 mg/kg/injection, vehicle: saline): 91 % of control
T/C (dose: 2.0 mg/kg/injection, vehicle: saline): 102 % of control
T/C (dose: 4.0 mg/kg/injection, vehicle: saline): 113 % of control

Nc1ncnc2nc[nH]c12
T/C (dose: 32.0 mg/kg/injection, vehicle: Klucel (hydroxypropylcellulose) (HPC)): 99 % of control
T/C (dose: 64.0 mg/kg/injection, vehicle: Klucel (hydroxypropylcellulose) (HPC)): 99 % of control
T/C (dose: 128.0 mg/kg/injection, vehicle: Klucel (hydroxypropylcellulose) (HPC)): 98 % of control
